# ChEMBL document CHEMBL1132590, “Aminopyridazines as acetylcholinesterase inhibitors” (J Med Chem, 1999)
# Assays:
# [1] = target: T1, Acetylcholinesterase (Rattus norvegicus, UniProt P37136)
# T1 sequence (P37136 whole entry): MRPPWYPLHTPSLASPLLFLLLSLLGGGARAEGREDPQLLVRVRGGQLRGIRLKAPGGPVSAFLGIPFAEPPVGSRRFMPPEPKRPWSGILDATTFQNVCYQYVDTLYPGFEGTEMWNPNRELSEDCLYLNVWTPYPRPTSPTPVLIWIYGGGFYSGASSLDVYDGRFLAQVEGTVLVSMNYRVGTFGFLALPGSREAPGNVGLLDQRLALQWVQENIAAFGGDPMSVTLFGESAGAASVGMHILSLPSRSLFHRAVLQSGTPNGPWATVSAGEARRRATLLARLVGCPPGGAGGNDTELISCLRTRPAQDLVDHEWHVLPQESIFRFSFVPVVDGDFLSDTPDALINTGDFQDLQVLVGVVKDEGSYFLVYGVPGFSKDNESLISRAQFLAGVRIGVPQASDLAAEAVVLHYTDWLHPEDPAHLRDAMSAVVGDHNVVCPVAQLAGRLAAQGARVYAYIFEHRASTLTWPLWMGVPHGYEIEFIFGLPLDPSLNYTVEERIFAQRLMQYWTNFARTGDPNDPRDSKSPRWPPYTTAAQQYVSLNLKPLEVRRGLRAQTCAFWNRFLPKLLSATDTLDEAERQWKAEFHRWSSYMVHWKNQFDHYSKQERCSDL
# Description: In vitro inhibition of acetylcholinesterase in homogenized rat striatum.
# [2] = target: Acetylcholinesterase (Homo sapiens, UniProt P22303); experiment: Inhibitory concentration against acetylcholinesterase (AChE) from human erythrocytes
# Acetylcholinesterase (Homo sapiens, UniProt P22303), sequence (P22303 whole entry): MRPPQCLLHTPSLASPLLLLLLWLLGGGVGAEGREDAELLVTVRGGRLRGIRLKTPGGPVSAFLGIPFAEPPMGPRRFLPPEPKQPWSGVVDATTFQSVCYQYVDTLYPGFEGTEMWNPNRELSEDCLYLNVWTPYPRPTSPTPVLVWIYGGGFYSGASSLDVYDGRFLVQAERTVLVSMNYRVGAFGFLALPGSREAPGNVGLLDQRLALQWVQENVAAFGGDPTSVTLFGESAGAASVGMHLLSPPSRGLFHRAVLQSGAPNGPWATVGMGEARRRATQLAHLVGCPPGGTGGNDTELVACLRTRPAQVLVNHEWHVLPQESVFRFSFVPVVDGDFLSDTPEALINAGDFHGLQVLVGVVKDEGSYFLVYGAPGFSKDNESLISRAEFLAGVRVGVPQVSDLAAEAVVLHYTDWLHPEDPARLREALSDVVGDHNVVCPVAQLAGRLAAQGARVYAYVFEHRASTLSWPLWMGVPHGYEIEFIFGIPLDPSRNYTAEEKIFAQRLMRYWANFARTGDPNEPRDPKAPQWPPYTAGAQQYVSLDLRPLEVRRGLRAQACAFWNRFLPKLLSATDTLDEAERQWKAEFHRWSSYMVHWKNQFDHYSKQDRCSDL
# [3] = target: Cholinesterase (Homo sapiens, UniProt P06276); experiment: Inhibitory concentration against Butyrylcholinesterase (BuChE) from human serum
# Cholinesterase, sequence (P06276 whole entry): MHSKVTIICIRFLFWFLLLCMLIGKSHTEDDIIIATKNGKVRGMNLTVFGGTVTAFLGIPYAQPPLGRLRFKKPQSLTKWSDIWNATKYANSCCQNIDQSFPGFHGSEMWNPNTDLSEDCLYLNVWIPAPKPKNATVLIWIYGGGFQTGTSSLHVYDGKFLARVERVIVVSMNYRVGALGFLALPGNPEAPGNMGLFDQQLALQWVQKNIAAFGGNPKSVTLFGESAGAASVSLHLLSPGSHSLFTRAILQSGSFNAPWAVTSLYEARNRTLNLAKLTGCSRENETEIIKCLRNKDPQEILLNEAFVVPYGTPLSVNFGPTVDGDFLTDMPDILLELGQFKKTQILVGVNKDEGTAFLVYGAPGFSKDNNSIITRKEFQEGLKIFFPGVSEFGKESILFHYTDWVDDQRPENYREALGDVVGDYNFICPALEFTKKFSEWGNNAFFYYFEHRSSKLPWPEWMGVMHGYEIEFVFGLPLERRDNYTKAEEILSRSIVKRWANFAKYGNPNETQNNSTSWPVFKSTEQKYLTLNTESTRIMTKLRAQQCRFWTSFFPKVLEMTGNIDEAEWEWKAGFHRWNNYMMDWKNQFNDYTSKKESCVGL
# [4] = Ratio of inhibitory activity of ocmpound towards acetylcholinesterase from human erythrocytes over butyrylcholinesterase from human serum
# [5] = target: Acetylcholinesterase (Torpedo californica, UniProt P04058)
# Acetylcholinesterase (Torpedo californica, UniProt P04058), sequence (P04058 whole entry): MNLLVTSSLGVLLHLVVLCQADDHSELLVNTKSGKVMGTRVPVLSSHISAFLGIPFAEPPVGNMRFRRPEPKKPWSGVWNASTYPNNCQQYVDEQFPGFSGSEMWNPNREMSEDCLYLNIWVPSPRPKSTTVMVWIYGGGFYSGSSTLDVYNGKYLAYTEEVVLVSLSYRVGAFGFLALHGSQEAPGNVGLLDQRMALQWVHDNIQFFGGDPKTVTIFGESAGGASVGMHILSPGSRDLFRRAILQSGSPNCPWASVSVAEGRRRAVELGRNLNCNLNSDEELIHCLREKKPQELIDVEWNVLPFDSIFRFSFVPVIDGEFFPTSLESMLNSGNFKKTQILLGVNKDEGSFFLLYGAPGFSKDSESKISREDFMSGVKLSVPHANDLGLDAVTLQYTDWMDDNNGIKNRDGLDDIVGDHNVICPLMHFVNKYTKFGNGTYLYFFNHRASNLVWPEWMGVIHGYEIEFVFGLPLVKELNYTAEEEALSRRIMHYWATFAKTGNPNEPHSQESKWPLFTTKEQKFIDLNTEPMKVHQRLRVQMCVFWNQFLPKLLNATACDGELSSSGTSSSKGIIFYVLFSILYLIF
# Description: In vitro inhibition of Torpedo californica acetylcholinesterase.
Compound,IC50 [1],IC50 [5],further results
N#Cc1cc(-c2ccccc2)nnc1NCCN1CCOCC1,> 100 µM,–,–
c1ccc(-c2ncc(NCCN3CCCCC3)nn2)cc1,57 µM,–,–
c1ccc(-c2cc(-c3ccccc3)c(NCCN3CCOCC3)nn2)cc1,260 µM,–,–
Cc1cc(-c2ccccc2)nnc1NCCN1CCOCC1,85 µM,–,–
c1ccc(-c2cnc(NCCN3CCCCC3)nc2)cc1,> 100 µM,–,–
Cc1cc(-c2ccccc2)nnc1NCCN1CCCCC1,5.4 µM,–,–
CN(CCCCCNc1ccc(-c2ccccc2)nn1)Cc1ccccc1,–,0.74 µM,IC50 [2]: 0.93 µM; IC50 [3]: 0.34 µM; Ratio [4]: 0.36
c1ccc(CN2CCC(CCNc3ccc(-c4ccccc4)nn3)CC2)cc1,–,0.12 µM,IC50 [2]: 0.14 µM; IC50 [3]: 0.7 µM; Ratio [4]: 5
c1ccc(-c2ccc(NCCN3CCCCC3)nn2)cc1,13 µM,71 µM,–
FC(F)(F)c1cc(-c2ccccc2)nnc1NCCN1CCOCC1,740 µM,–,–
c1ccc(-c2ccc(NCCN3CCCCC3)nc2)cc1,70 µM,–,–
CCN1CCCC1CNc1ccc(-c2ccccc2)nn1 (configuration not stated),–,62 µM,–
c1ccc(-c2ccc(NCCN3CCOCC3)nn2)cc1,> 1000 µM,800 µM,–
OCc1cc(-c2ccccc2)nnc1NCCN1CCOCC1,440 µM,–,–
c1ccc(-c2ccc(NCCCN3CCc4ccccc4C3)nn2)cc1,–,35 µM,–
Cc1cc(-c2ccc(Cl)cc2)nnc1NCCN1CCCCC1,1.3 µM,–,–

Compound,IC50 [1],IC50 [5],further results
c1ccc(CN2CCC(Nc3ccc(-c4ccccc4)nn3)CC2)cc1,–,65 µM,–
c1ccc(-c2ccc(NCCCCN3CCc4ccccc4C3)nn2)cc1,–,15 µM,–
Cc1cc(-c2ccc3c(c2)OCO3)nnc1NCCN1CCCCC1,1 µM,–,–
Nc1cc(-c2ccccc2)nnc1NCCN1CCOCC1,270 µM,–,–
c1ccc(C2=NNC(NCCN3CCCCC3)=NC2)cc1,47 µM,–,–
CN(CCCNc1ccc(-c2ccccc2)nn1)Cc1ccccc1,–,13 µM,–
Cc1cc(-c2ccc(Cl)cc2)nnc1NCCN1CCOCC1,34 µM,–,–
c1ccc(CN2CCC(CNc3ccc(-c4ccccc4)nn3)CC2)cc1,–,5.6 µM,–
c1ccc(-c2nnc(NCCN3CCCCC3)s2)cc1,54 µM,–,–
c1ccc(-c2ccc(NCCCN3CCOCC3)nn2)cc1,–,410 µM,–
c1ccc(-c2cnc(NCCN3CCCCC3)nn2)cc1,60 µM,–,–
CN(CCCCNc1ccc(-c2ccccc2)nn1)Cc1ccccc1,–,11 µM,–
c1ccc(-c2ccc(NCCCCCN3CCc4ccccc4C3)nn2)cc1,–,10 µM,IC50 [2]: 47 µM; IC50 [3]: 0.31 µM; Ratio [4]: 0.0066
c1ccc(-c2ccc(NCCN3CCc4ccccc4C3)nn2)cc1,–,83 µM,–
CN(CCNc1ccc(-c2ccccc2)nn1)Cc1ccccc1,–,170 µM,–
